Measurements taken from patent US20220107328A1, “METHODS OF TREATING LIVER DISEASES” (Camp4 Therapeutics Corporation, priority 2018, published 2022).

Assays:
PNPLA3 mRNA [1] = assay: qRT-PCR of PNPLA3 mRNA in compound-treated mouse hepatocytes; assay type: cell-based; conditions: for Relative PNPLA3 mRNA levels: mouse hepatocytes, 1 μM, normalized to ACTB; for PNPLA3 mRNA remaining after treatment compared to untreated cells: Mouse hepatocytes
Protocol: Analysis of the fold changes in expression as measured by qRT-PCR were performed using the technique below. The control was DMSO, and the treatment was the selected compound (CPD). The internal control was GAPDH or B-Actin (or otherwise indicated), and the gene of interest is the target. First, the averages of the 4 conditions were calculated for normalization: DMSO:GAPDH, DMSO:Target, CPD: GAPDH, and CPD:Target. Next, the ΔCT of both control and treatment were calculated to normalize to internal control (GAPDH) using (DMSO:Target)−(DMSO:GAPDH)=ΔCT control and (CPD:Target)−(CPD: GAPDH)=ΔCT experimental. Then, the ΔΔCT was calculated by ΔCT experimental−ΔCT control. The Expression Fold Change (or Relative Quantification, abbreviated as RQ) was calculated by 2−(ΔΔCT) (2-fold expression change was shown by RNA-Seq results provided herein).
Compounds were tested at concentrations ranging from 0.01 μM to 50 μM. […] PNPLA3 levels were normalized to the level of a house keeping gene ACTB.

PNPLA3 mRNA [2] = assay: qRT-PCR of PNPLA3 mRNA in human primary hepatic stellate cells; assay type: cell-based; conditions: for Primary Stellate cells PNPLA3 (fold change in mRNA expression): 3 μM, relative to GAPDH; for Relative PNPLA3 mRNA levels RQ: hepatic stellate cells; for PNPLA3 mRNA remaining after treatment compared to untreated cells: Human Stellate
COL1A1 mRNA = assay: qRT-PCR of COL1A1 mRNA in human primary hepatic stellate cells; assay type: cell-based; conditions: for Primary Stellate cells COL1A1 (fold change in mRNA expression): 3 μM, relative to GAPDH; for Relative COL1A1 mRNA levels RQ: hepatic stellate cells
Protocol: Cells were plated at a density of 17000 cells/well in a 96-well plate and allowed to adhere overnight. The following day cell culture media was replenished with the indicated concentration(s) of compound for 18 hours. […] Medium was removed after 18 hours and cells were processed for further analysis, e.g. qRT-PCR.
Analysis of the fold changes in expression as measured by qRT-PCR were performed using the technique below. The control was DMSO, and the treatment was the selected compound (CPD). The internal control was GAPDH or B-Actin (or otherwise indicated), and the gene of interest is the target. First, the averages of the 4 conditions were calculated for normalization: DMSO:GAPDH, DMSO:Target, CPD: GAPDH, and CPD:Target. Next, the ΔCT of both control and treatment were calculated to normalize to internal control (GAPDH) using (DMSO:Target)−(DMSO:GAPDH)=ΔCT control and (CPD:Target)−(CPD: GAPDH)=ΔCT experimental. Then, the ΔΔCT was calculated by ΔCT experimental−ΔCT control.
Candidate compounds were tested in stellate cells for their ability to modulate PNPLA3 and COL1A1. Stellate cells were treated with serial dilutions of the compounds, ranging from 0.1 μM to 100 μM. Changes in PNPLA3 (or COL1A1) mRNA levels in stellate cells were analyzed with qRT-PCR.

PCSK9 mRNA = assay: qRT-PCR of PCSK9 mRNA in primary hepatocytes; assay type: cell-based, human; conditions: donor 4178, 3 μM, relative to GUSB
PNPLA3 mRNA [3] = assay: qRT-PCR of PNPLA3 mRNA in compound-treated primary human hepatocytes; conditions: for Primary Hepatocytes 4178 PNPLA3 (fold change in mRNA expression): donor 4178, 3 μM; for Primary Hepatocytes 4178 PNPLA3 (fold change in mRNA expression) / Primary Hepatocytes 4282 PNPLA3 (fold change in mRNA expression): relative to GUSB; for Primary Hepatocytes 4282 PNPLA3 (fold change in mRNA expression): donor 4282, 3 μM
[4] = mTOR pathway inhibitors, 10 μM, human hepatocytes, qRT-PCR, mean of three replicates ± standard deviation

Structure (SMILES)	Relative PNPLA3 mRNA levels (PNPLA3 mRNA [1])	Primary Stellate cells PNPLA3 (fold change in mRNA expression) (PNPLA3 mRNA [2])	Relative PNPLA3 mRNA levels RQ (PNPLA3 mRNA [2]; 0.01 μM)	Relative PNPLA3 mRNA levels RQ (PNPLA3 mRNA [2]; 0.1 μM)	Relative PNPLA3 mRNA levels RQ (PNPLA3 mRNA [2]; 1 μM)	Relative PNPLA3 mRNA levels RQ (PNPLA3 mRNA [2]; 10 μM)	Primary Stellate cells COL1A1 (fold change in mRNA expression) (COL1A1 mRNA)	Relative COL1A1 mRNA levels RQ (COL1A1 mRNA; 0.01 μM)	Relative COL1A1 mRNA levels RQ (COL1A1 mRNA; 0.1 μM)	Relative COL1A1 mRNA levels RQ (COL1A1 mRNA; 1 μM)	Relative COL1A1 mRNA levels RQ (COL1A1 mRNA; 10 μM)	Primary Hepatocytes 4178 PCSK9 (fold change in mRNA expression) (PCSK9 mRNA)	Primary Hepatocytes 4178 PNPLA3 (fold change in mRNA expression) (PNPLA3 mRNA [3])	Primary Hepatocytes 4282 PNPLA3 (fold change in mRNA expression) (PNPLA3 mRNA [3])	Relative PNPLA3 mRNA levels (PNPLA3 mRNA [3]; [4])	PNPLA3 mRNA remaining after treatment compared to untreated cells (PNPLA3 mRNA [1]; 10 uM)	PNPLA3 mRNA remaining after treatment compared to untreated cells (PNPLA3 mRNA [2]; 1 uM)	PNPLA3 mRNA remaining after treatment compared to untreated cells (PNPLA3 mRNA [2]; 10 uM)	PNPLA3 mRNA remaining after treatment compared to untreated cells (PNPLA3 mRNA [3]; H Hep Donor-2, 10 uM)	PNPLA3 mRNA remaining after treatment compared to untreated cells (PNPLA3 mRNA [3]; H Hep Donor-3, 10 uM)	also measured
CO[C@H]1C[C@@H]2CC[C@@H](C)[C@@](O)(O2)C(=O)C(=O)N2CCCC[C@H]2C(=O)O[C@H]([C@H](C)C[C@@H]2CC[C@@H](OCCO)[C@H](OC)C2)CC(=O)[C@H](C)/C=C(\C)[C@@H](O)[C@@H](OC)C(=O)[C@H](C)C[C@H](C)/C=C/C=C/C=C/1C [Everolimus]	0.31 ± 0.10	0.36	0.64	0.47	0.56	0.44	0.93	1.07	1.01	1.12	1.19	0.66	0.60	1.00	0.98 ± 0.17	–	–	–	–	–	–
COc1ccc(-c2ccc3c(N4CCOC[C@@H]4C)nc(N4CCOC[C@@H]4C)nc3n2)cc1CO [AZD-8055]	0.21 ± 0.11	0.36	0.38	0.44	0.45	0.39	0.46	0.71	0.58	0.35	0.27	0.68	–	–	0.52 ± 0.16	–	–	–	–	–	–
CC(C)n1nc(-c2cc3cc(O)ccc3[nH]2)c2c(N)ncnc21 [PP242, Torkinib]	0.44 ± 0.10	–	1.07	0.74	0.39	0.63	–	1.09	1.02	0.40	0.18	–	–	–	–	–	–	–	–	–	Relative PNPLA3 mRNA levels (PNPLA3 mRNA [3]): 0.50 ± 0.02
FC(F)(F)c1ccc(/C=C/c2nc(COc3ccc(CCCCn4ccnn4)cc3)co2)cc1 [Mubritinib (TAK 165)]	–	–	–	–	–	–	–	–	–	–	–	–	–	–	–	0.09	0.2	0.78	0.39	0.2	PNPLA3 mRNA remaining after treatment compared to untreated cells (PNPLA3 mRNA [1]; 1 uM): 1.12; PNPLA3 mRNA remaining after treatment compared to untreated cells (PNPLA3 mRNA [3]; H Hep Donor-4, 1 uM): 0.55; PNPLA3 mRNA remaining after treatment compared to untreated cells (PNPLA3 mRNA [3]; H Hep Donor-4, 10 uM): 0.4; PNPLA3 mRNA remaining after treatment compared to untreated cells (PNPLA3 mRNA [3]; H Hep Donor-5, 1 uM): 0.6; PNPLA3 mRNA remaining after treatment compared to untreated cells (PNPLA3 mRNA [3]; H Hep Donor-5, 10 uM): 0.25
CCNC(=O)Nc1ccc(-c2nc(N3CCOC[C@@H]3C)c3c(n2)C(C)(C)S(=O)(=O)C3)cc1 [CZ415]	0.20 ± 0.11	0.37	0.87	0.47	0.31	0.35	0.59	1.01	0.86	0.28	0.27	0.66	0.60	0.70	0.62 ± 0.07	–	–	–	–	–	–
CN(c1ncccc1CNc1nc(Nc2ccc3c(c2)CC(=O)N3)ncc1C(F)(F)F)S(C)(=O)=O [PF-00562271]	–	–	–	–	–	–	–	–	–	–	–	–	–	–	–	0.27	1	0.18	0.34	0.2	PNPLA3 mRNA remaining after treatment compared to untreated cells (PNPLA3 mRNA [3]; H Hep Donor-4, 10 uM): 0.5; PNPLA3 mRNA remaining after treatment compared to untreated cells (PNPLA3 mRNA [3]; H Hep Donor-5, 1 uM): 1; PNPLA3 mRNA remaining after treatment compared to untreated cells (PNPLA3 mRNA [3]; H Hep Donor-5, 10 uM): 0.25
